Measurements as given in patent publication US6653300B2, “Pyrazole compounds useful as protein kinase inhibitors” (Vertex Pharmaceuticals Incorporated, priority 2000, dated 2003).

Key:
[1] = molecular target: T1, GSK-3β (AA 1-420) (Homo sapiens, UniProt P49841); experiment: Ki determination for the inhibition of GSK-3 (coupled enzyme system); format: biochemical; conditions: 20 μM ATP, 20 nM GSK-3β, 30° C.
T1 construct: GSK-3β (AA 1-420)
In short: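 GSK-3β (AA 1-420, 20 nM) was run in a pyruvate kinase/LDH-coupled NADH assay in 100 mM HEPES pH 7.5, 10 mM MgCl2, 25 mM NaCl, 1 mM DTT, 1.5% DMSO, with 300 μM phosphopeptide substrate. Compound (0.002–30 μM) was preincubated 10 min at 30° C, then 20 μM ATP was added.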

[2] = molecular target: T2, Aurora-2 (Homo sapiens, UniProt O14965); experiment: Ki determination for the inhibition of Aurora-2 (coupled enzyme assay); format: biochemical; conditions: 70 nM Aurora-2, 30° C.
T2 sequence (O14965 1-403): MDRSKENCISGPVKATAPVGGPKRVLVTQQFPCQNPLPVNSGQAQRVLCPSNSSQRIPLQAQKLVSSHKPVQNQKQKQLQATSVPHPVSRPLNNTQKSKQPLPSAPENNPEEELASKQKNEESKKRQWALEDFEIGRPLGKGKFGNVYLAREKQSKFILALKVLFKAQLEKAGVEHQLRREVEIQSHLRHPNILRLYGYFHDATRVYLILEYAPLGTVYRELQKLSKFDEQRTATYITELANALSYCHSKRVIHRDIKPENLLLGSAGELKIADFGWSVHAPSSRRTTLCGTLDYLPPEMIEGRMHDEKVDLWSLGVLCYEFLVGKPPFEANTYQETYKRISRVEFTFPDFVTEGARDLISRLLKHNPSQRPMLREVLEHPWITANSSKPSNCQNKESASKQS
In short: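 Ki came from reaction rates plotted against inhibitor concentration, with rates taken as A340 decrease over 5 min at 30° C. Enzyme (70 nM final) was added after 10 min compound preincubation; stock buffer held […], 800 μM LRRASLG, PK/LDH coupling, pH 7.5.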

T1 sequence (P49841 whole entry, the tested form may be a part): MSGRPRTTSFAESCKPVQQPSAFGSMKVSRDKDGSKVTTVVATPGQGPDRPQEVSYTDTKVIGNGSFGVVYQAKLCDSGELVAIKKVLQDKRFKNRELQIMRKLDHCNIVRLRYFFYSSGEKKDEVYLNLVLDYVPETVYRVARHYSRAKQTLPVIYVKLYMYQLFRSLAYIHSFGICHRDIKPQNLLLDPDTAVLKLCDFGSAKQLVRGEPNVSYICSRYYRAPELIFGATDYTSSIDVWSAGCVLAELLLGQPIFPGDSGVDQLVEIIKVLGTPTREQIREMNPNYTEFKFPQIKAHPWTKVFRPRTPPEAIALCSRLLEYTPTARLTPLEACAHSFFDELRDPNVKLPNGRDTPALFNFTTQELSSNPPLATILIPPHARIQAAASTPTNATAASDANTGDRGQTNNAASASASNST

Ki [1] [nM]	Ki [2] [nM]	melting point	SMILES
100 to 1000	< 100	245 °C (dec.)	Cc1cc(Nc2nc(Nc3ccc(CC(=O)O)c(C)c3)nc3ccccc23)n[nH]1 [IIc-65, [2-(4-Carboxymethyl-3-methylphenylamino)-quinazolin-4-yl]-(5-methyl-2H-pyrazol-3-yl)-amine]
< 100	< 100	290 to 293 °C	Cc1cc(Nc2nc(Nc3ccc(Br)cc3)nc3ccccc23)n[nH]1 [IIc-67, [2-(4-Bromophenylamino)-quinazolin-4-yl]-(5-methyl-2H-pyrazol-3-yl)-amine]
1000 to 7000	< 100	248 to 252 °C	CCc1cc(Nc2nc(Nc3cc(CC)[nH]n3)c3ccccc3n2)n[nH]1 [IIc-69, (5-Ethyl-2H-pyrazol-3-yl)-[2-(5-ethyl-2H-pyrazol-3-ylamino)-quinazolin-4-yl]-amine]
1000 to 7000	< 100	219 to 221 °C	c1ccc(Cc2nc(Nc3cc(C4CC4)[nH]n3)c3ccccc3n2)cc1 [IId-3, (2-Benzyl-quinazolin-4-yl)-(5-cyclopropyl-2H-pyrazol-3-yl)-amine]

The next lines start with the compound.

SMILES	Ki [1] [nM]	Ki [2] [nM]	melting point
Cc1cc(Nc2nc(Nc3ccc(C)c(C)c3)nc3ccccc23)n[nH]1 [IIc-54, [2-(3,4-Dimethylphenylamino)-quinazolin-4-yl]-(5-methyl-2H-pyrazol-3-yl)-amine]	100 to 1000	< 100	249 to 251 °C
CCc1cccc(Nc2nc(Nc3cc(C)[nH]n3)c3ccccc3n2)c1 [IIc-55, [2-(3-Ethylphenylamino)-quinazolin-4-yl]-(5-methyl-2H-pyrazol-3-yl)-amine]	100 to 1000	< 100	238 to 239 °C
CC(=O)Nc1ccc(Nc2nc(Nc3cc(C)[nH]n3)c3ccccc3n2)cc1C#N [IIc-57, [2-(4-Acetamido-3-cyanophenylamino)-quinazolin-4-yl]-(5-methyl-2H-pyrazol-3-yl)-amine]	100 to 1000	< 100	294 to 296 °C
CC(=O)Nc1ccc(Nc2nc(Nc3cc(C)[nH]n3)c3ccccc3n2)cc1 [IIc-59, [2-(4-Acetamidophenylamino)-quinazolin-4-yl]-(5-methyl-2H-pyrazol-3-yl)-amine]	100 to 1000	< 100	253 to 256 °C
Cc1cc(Nc2nc(Nc3ccc(NC(=O)OC(C)(C)C)cc3)nc3ccccc23)n[nH]1 [IIc-60, [2-(4-tert-Butoxycarbonylamino-phenylamino)-quinazolin-4-yl]-(5-methyl-2H-pyrazol-3-yl)-amine]	1000 to 7000	< 100	238 to 242 °C
Cc1cc(Nc2nc(Nc3ccc(C#N)cc3)nc3ccccc23)n[nH]1 [IIc-61, [2-(4-Cyanophenylamino)-quinazolin-4-yl]-(5-methyl-2H-pyrazol-3-yl)-amine]	< 100	< 100	293 to 298 °C
Cc1cc(Nc2nc(Nc3cccc(-c4ccccc4)c3)nc3ccccc23)n[nH]1 [IIc-63, [2-(Biphenyl-3-ylamino)-quinazolin-4-yl]-(5-methyl-2H-pyrazol-3-yl)-amine]	100 to 1000	< 100	206 to 207 °C
COC(=O)Cc1ccc(Nc2nc(Nc3cc(C)[nH]n3)c3ccccc3n2)cc1C [IIc-64, [2-(4-Methoxycarbonylmethyl-3-methylphenylamino)-quinazolin-4-yl]-(5-methyl-2H-pyrazol-3-yl)-amine]	100 to 1000	< 100	245 to 246 °C
